Measurements taken from patent US11453666B2, “Autotaxin inhibitory compounds” (Cancer Research Technology Limited, priority 2015, dated 2022).
Read-outs that look alike come from different tables or passages of the source.

Target: human recombinant ATX (Homo sapiens, UniProt Q13822)
Test: Autotaxin (ATX) activity Quanta Red assay
Assay type: biochemical
Conditions: read-out: Activity (ATX activity, Quanta Red assay; IC50)
Description: The reaction was stopped after 2 hours with a 20 μL addition of Quanta Red Stop solution (1:20 dilution in distilled water). The above-described mixture with DMSO alone was used as a positive control whereas that with DMSO alone without ATX was taken as a negative control.
Fluorescence was determined in a BMG Labtech Pherastar plus plate reader ([…]). Data were analysed using Excel fit software. IC50 values were determined in duplicate.

Structure (SMILES) | IC50 | IC50 (human recombinant ATX 0.8 μg/mL, 2 hours at room temperature, IC50 determined in duplicate)
O=C(CCc1nc2cccnc2n1Cc1ccc(OC(F)(F)F)cc1)N[C@H]1CCc2ccccc21 [Example 25, N-(S)-Indan-1-yl-3-[3-(4-trifluoromethoxy-benzyl)-3H-imidazo[4,5-b]pyridin-2-yl]-propionamide] | 4 nM | 
O=C(CCc1nc2cccnc2n1Cc1ccc(F)cc1)N[C@H](CO)c1ccccc1 [Example 64, 3-[3-(4-Fluoro-benzyl)-3H-imidazo[4,5-b]pyridin-2-yl]-N-((S)-2-hydroxy-1-phenyl-ethyl)-propionamide] | 144 nM | 
C[C@H](NC(=O)CCc1cc2cc(F)cnc2n1Cc1ccc(Cl)cc1)c1ccc(F)cc1 [Example 141, 3-[1-(4-Chloro-benzyl)-5-fluoro-1H-pyrrolo[2,3-b]byridin-2-yl]-N-[(S)-1-(4-fluoro-phenyl)-ethyl]-propionamide] | 14 nM | 
Cc1ccc2nc(CCC(=O)N[C@@H](C)c3ccc(Cl)cc3)n(Cc3ccc(F)cc3)c2n1 [Example 79, N-[(S)-1-(4-Chloro-phenyl)-ethyl]-3-[3-(4-fluoro-benzyl)-5-methyl-3H-imidazo[4,5-b]pyridin-2-yl]-propionamide] | 94 nM | 
C[C@H](NC(=O)CCc1nc2cccnc2n1Cc1ccc(F)c(F)c1)c1ccccn1 [Example 72, 3-[3-(3,4-Difluoro-benzyl)-3H-imidazo[4,5-b]pyridin-2-yl]-N-((S)-1-pyridin-2-yl-ethyl)-propionamide] | 247 nM | 
C[C@H](NC(=O)OCc1nc2cccnc2n1Cc1ccc(F)cc1)c1ccc(F)cc1 [Example 166, [(S)-1-(4-fluoro-phenyl)-ethyl]-carbamic acid 3-(4-fluoro-benzyl)-3H-imidazo[4,5-b]pyridin-2-ylmethyl Ester] | 336 nM | 
CC(NC(=O)CCc1nc2cccnc2n1Cc1ccc(OC(F)(F)F)cc1)c1ccncc1 (centres unmarked) [Example 34, N-(1-Pyridin-4-yl-ethyl)-3-[3-(4-trifluoromethoxy-benzyl)-3H-imidazo[4,5-b]pyridin-2-yl]-propionamide] | 6 nM | 
C[C@H](NC(=O)COc1nc2cccnc2n1Cc1ccc(OC(F)(F)F)cc1)c1ccc(Cl)cc1 [Example 152, N—[(S)-1-(4-chloro-phenyl)-ethyl]-2-[3-(4-trifluoromethoxy-benzyl)-3H-imidazo[4,5-b]pyridin-2-yloxy]-acetamide] |  | 5 nM
COc1ccc(Cn2c(CCC(=O)N[C@@H](C)c3ccccc3)nc3cccnc32)cc1 [Example 92, 3-[3-(4-Methoxy-benzyl)-3H-imidazo[4,5-b]pyridin-2-yl]-N-((S)-1-phenyl-ethyl)-propionamide] | 17 nM | 
O=C(CCc1nc2cccnc2n1Cc1ccc(OC(F)(F)F)cc1)NCC1CCN(C(=O)C2CC2)CC1 [Example 215, N-(1-Cyclopropanecarbonyl-piperidin-4-ylmethyl)-3-[3-(4-trifluoromethoxy-benzyl)-3H-imidazo[4,5-b]pyridin-2-yl]-propionamide] | 81 nM | 
COc1ccc(Cn2c(CCC(=O)NCc3ccccc3F)nc3cccnc32)cc1 [Example 114, N-(2-Fluoro-benzyl)-3-[3-(4-methoxy-benzyl)-3H-imidazo[4,5-b]pyridin-2-yl]-propionamide] | 301 nM | 
O=C(CCc1nc2cccnc2n1Cc1ccc(OC(F)(F)F)cc1)NC(CO)c1ccc(C(F)(F)F)cc1 (centres unmarked) [Example 23, N-[2-Hydroxy-1-(4-trifluoromethyl-phenyl)-ethyl]-3-[3-(4-trifluoromethoxy-benzyl)-3H-imidazo[4,5-b]pyridin-2-yl]-propionamide] | 4 nM | 
C[C@H](NC(=O)CCc1nc2cccnc2n1Cc1ccc(OC(F)(F)F)cc1)C1CC1 [Example 60, N-((S)-1-Cyclopropyl-ethyl)-3-[3-(4-trifluoromethoxy-benzyl)-3H-imidazo[4,5-b]pyridin-2-yl]-propionamide] | 89 nM | 
C[C@H](NC(=O)CSc1nc2cccnc2n1Cc1ccc(F)cc1)c1ccc(F)cc1 [Example 146, 2-[3-(4-Fluoro-benzyl)-3H-imidazo[4,5-b]pyridin-2-ylsulfanyl]-N-[(S)-1-(4-fluoro-phenyl)-ethyl]-acetamide] | 3 nM | 
